From ChEMBL document CHEMBL1128043, “Synthesis of FK506-Cyclosporin hybrid macrocycles” (Bioorg Med Chem Lett, 1995)

Molecular target: Peptidyl-prolyl cis-trans isomerase FKBP1A (Homo sapiens, UniProt P62942)
Experiment: Binding affinity to FK506 binding protein 12 was determined

Chain of Peptidyl-prolyl cis-trans isomerase FKBP1A (P62942 whole entry): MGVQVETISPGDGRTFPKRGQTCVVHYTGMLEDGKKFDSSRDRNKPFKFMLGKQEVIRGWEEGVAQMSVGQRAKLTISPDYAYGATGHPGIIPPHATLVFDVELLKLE

SMILES: CCCC1C(=O)CC[C@@H](C)[C@@H](CCc2cccnc2)OC(=O)[C@@H]2CCCN(C2)C(=O)C(O)CC[S+]([O-])CC[C@@H](OC)C[C@@H](C)CC(=O)N1C (stereo not given in full)
- Kd: > 1000 nM

SMILES: C=CC[C@@H]1/C=C(\C)C[C@H](C)C[C@H](OC)[C@@H](O)[C@@H](OC)C[C@@H](C)c2ncoc2C(=O)N2CCCC[C@H]2C(=O)O[C@H](/C(C)=C/[C@@H]2CC[C@@H](O)[C@H](OC)C2)[C@H](C)C(O)CC1=O (stereo not given in full)
- Kd: 344 nM

SMILES: C=CC[C@@H]1/C=C(\C)C[C@H](C)C[C@H](OC)[C@@H](O)[C@@H](OC)C[C@@H](C)CC(=O)C(=O)N2CCCC[C@H]2C(=O)O[C@H](/C(C)=C/[C@@H]2CC[C@@H](O)[C@H](OC)C2)[C@H](C)[C@@H](O)CC1=O
- Kd: 320 nM

SMILES: CCCC1C(=O)CC[C@@H](C)[C@@H](CCc2cccnc2)OC(=O)[C@@H]2CCCN(C2)C(=O)C(=O)CSCC[C@@H](OC)C[C@@H](C)CC(=O)N1C (stereo not given in full)
- Kd: 644 nM

SMILES: CCC(C)C1C(=O)CC[C@@H](C)[C@@H](CCc2cccnc2)OC(=O)[C@@H]2CCCN(C2)C(=O)C(=O)CCSCC[C@@H](OC)C[C@@H](C)CC(=O)N1C (stereo not given in full)
- Kd: 90 nM
